Data reported in US20190388389A1, “METHODS AND COMPOSITIONS OF CARNOSOL FOR INHIBITING UVB-INDUCED SKIN DAMAGE” (Ohio University, priority 2017, published 2019).

What was measured:
[1] = system: A431 human squamous carcinoma cell; assay: Clonogenic assay, A431; assay type: cell-based
Experimental: FIGS. 9A-9B. Carnosol decreases A431 cancer cell progression. Squamous carcinoma cell A431 was used to determine the effect of carnosol on cancer cell progression. (FIG. 9A) Effect of carnosol on cell viability. Cells were treated upon 50 mJ/cm^2 UVB radiation with or without carnosol treatment. After 24 h, cells were collect and MTT assay was performed to determine the cell viability. *p<0.05 versus control group, **p<0.05 versus UV group at indicated time point. (FIG. 9B) Effect of carnosol on clonogenic assay. Cells were exposed to 8 mJ/cm^2 UVB exposure in the presence or absence of carnosol. 5×10^3 cells were plated into 6 well plate immediately after treatment and incubated for […]. The error bars present the standard deviation of three sets of independent experiments. *p<0.05 versus control group, **p<0.05 versus UV group at indicated time point.
Immediate after treatment, cells were harvested with 0.25% trypsin-EDTA and counted, and then 5×10^3 cells were plated in 6-well plates. After 6 days, cells were fixed with cold methanol for 10 mM at […] and then stained by 1% crystal violet in 25% methanol for 10 mM. Cells were then rinsed with distilled water and colonies with a size greater than 0.4 mm were counted by Kodak IS in vivo F system equipped with Kodak Molecular Imaging Software (Eastman Kodak).

normal skin cells = assay: Cell viability with carnosol or its UVB-decomposed molecules (FIG. 12); assay type: cell-based; conditions: within 12 h after treatment
Experimental: FIG. 12. The effect of carnosol or its decomposed molecules on cell viability. Cell viability assay of carnosol and its UVB-decomposed molecules on normal skin cells in a time dependent manner (6, 12, and 24 h after UVB radiation).
(§1) UVB was generated from a Bench XX-Series UV Lamp (UVP Inc.) equipped with two 15-watt UVB tubes (UVP Inc.). The intensity of UVB was calibrated by a UVP model UVX digital radiometer (UVP Inc.) after the lamps warmed up for 5 min. For irradiating cells, the dose rate for 8 mJ/cm^2 or 50 mJ/cm^2 of UVB radiation was 0.8 or 3.8 mW/s respectively. Medium was removed before exposing the cells to UVB. After UVB radiation, fresh medium was added to the culture plates with or without drugs, and the cells were continue incubating at 37° C. with 5% CO2 until further analysis. Carnosol was disovled in DMSO and was irradiated with 50 mJ/cm^2 of UVB radiation at a dose rate of 3.8 mW/s before subjecting to cells or structure analysis using Mass Spectrum.

MEF cells = assay: Cell survival analysis (Annexin V/PI flow cytometry), MEF; assay type: cell-based, mouse; conditions: 20 μM carnosol
Experimental: FIGS. 6A-6C: Carnosol protects UVB-induced cell death. Cells were exposed to UVB radiation with different dose of carnosol treatment. At indicated time point, cells were collected and Annexin V/PI apoptosis detection kit was used to detect cell apoptosis. (FIG. 6A) HaCaT cell survival rate with different concentrations (μM) of carnosol treatment at 12 h post UVB radiation. (FIG. 6B) Time dependent assay (h) in the presence or absence of carnosol treatment in HaCaT cells. (FIG. 6C) MEF cells treated with 20 μM carnosol at indicated time point (h). The error bars present the standard deviation of three sets of independent experiments. *p<0.05 versus control group; **p<0.05 versus corresponded UV group.
as §1
Carnosol (Cayman) (FIG. 1) was added to cells at indicated concentration at 1 h before exposing the cells to UVB radiation. After radiation, cells were continuously incubated with or without carnosol in the medium until further analysis.
Total cell number of 1×10^5 was used for each analysis using flow cytometer. Fluorescein isothiocyanate (FITC) conjugated-annexin V (ANXS)/propidium iodide (PI) apoptosis detection kit (BD Biosciences) were used to stain the cells through the determination of the loss of membrane phospholipid […] and membrane integrity. Cell survival rate (R) was calculated as: R=[1×10^5−number of positive stained cells]/1×10^5. Briefly, the cells were harvested by 0.25% trypsin digestion, combined with the cells floating in the medium and washed twice with cold PBS. The cells were then suspended in ANXS binding buffer (10 mM Hepes/NaOH, pH 7.4, 140 mM NaCl and 2.5 mM CaCl2). The cell suspension was mixed with 5 μL ANXS-FITC and 5 μL PI. The cell mixture was incubated for […] in dark at room temperature and the ANXS/PI double-stained cells were analyzed using a FACSort Flow Cytometer (BD Science) equipped with CellQuest software (BD Science).

IκB = assay: Western blot for IκB protein level, HaCaT cells; assay type: cell-based, Human
Experimental: FIGS. 7A-7F: Carnosol inhibited UVB-induced NF-κB activation. Cells were exposed to UVB radiation in the presence or absence of carnosol. Cells were lysed at indicated time point and protein levels were measured by western blot analysis. (FIG. 7A) Western blot for IκB protein level in HaCaT cells at 2, 4 h post UVB radiation at 1, 10 or 20 μM carnosol treatment. (FIG. 7B) Western blot analysis for IκB protein level in HaCaT cells at 6 h post UVB radiation in the presence or absence of carnosol. (FIG. 7C) Western blot analysis for IκB protein level in MEF cells at 6 h post UVB radiation in the presence or absence of carnosol. (FIG. 7D) Western blot for 5276 site phosphorylation of NF-κB in HaCaT cells at 6 h post UVB with indicated carnosol concentration. (FIG. 7E) EMSA assay for HaCaT cells at 2, 4, 6 h post UVB radiation in the presence or absence of carnosol (20 μM). (FIG. 7F) Statistical analysis of the EMSA assay using two to three sets of independent experiments. *p<0.05 versus control group, **p<0.05 versus UV group at indicated time point.
Cells were lysed with Nonidet P-40 (NP-40) lysis buffer (2% NP-40, 80 mM NaCl, 100 mM Tris-HCl pH 8.0, 0.1% SDS) with proteinase inhibitor mixture (Complete™, Roche Molecular Biochemicals) at indicated time point. […] Protein concentration was measured by Protein DC Assay kit (Bio-Rad Laboratories). […]

Structure (SMILES): CC(C)c1cc2c(c(O)c1O)[C@@]13CCCC(C)(C)[C@@H]1C[C@@H]2OC3=O [carnosol]
- effect of double treatment on reduction of cancer cell survival ([1]; A431, carnosol and UVB radiation together): synergistic effect
- colony formation ([1]; A431, carnosol combined with 8 mJ/cm^2 UVB, UVB alone about 43%): about 17%
- colony formation rate ([1]; A431, carnosol treatment alone): about 65%
- protection of cell damage from UVB radiation (viability) (normal skin cells): can protect cell damage from UVB radiation in short term
- cell survival rate (MEF cells; 12 h post UVB, UVB alone about 88%): 97%
- cell survival rate (MEF cells; 24 h post UVB, UVB alone 80%): 90%
- cell survival rate (MEF cells; 36 h post UVB, UVB alone 62%): 70%
- cell survival rate (MEF cells; 48 h post UVB, UVB alone 43%): 58%
- IκB protein level (IκB; HaCaT, 2, 4 h post UVB, dose dependent (1, 10, 20 μM)): protects IκB level
- IκB protein level (IκB; HaCaT, 6 h post UVB): protection exists at least until 6 h
